{
  "source": "patent US20110039793A1",
  "about": "“Application of ginsenoside Rb1 in preparing medicaments for treating dilated cardiomyopathy” (priority 2008, published 2011)",
  "tested_on": "cTnT^R141W transgenic dilated cardiomyopathy mice model",
  "assay": "M-mode echocardiography, cardiac function and morphous, once a month",
  "assay_type": "in vivo",
  "parameters": "CO (Cardiac Output) / LVAW; d (left ventricular anterior wall thickness, end of diastole) / LV Mass (AW) (weight of the left ventricular) / Diameter; d (inner diameter of the left ventricular, end of diastole) / Volume; d (volume of the left ventricular, end of diastole) / SV (Stroke Volume): unit not given here",
  "settings": "75 mg/kg in drinking water",
  "description": "The positive mice at 1.5 months old are distributed by weight and cardiac function uniformly into the model group and the ginsenoside Rb1 administration group according to the echocardiography result, and each group comprises twelve mice. Ginsenoside Rb1, 75 mg/kg (State Yao zhun Zi, Yun Nan Tean Na Pharmaceutical Co., Ltd) is put into animal drinking water, and continuously administered for seven months.\nEchocardiography detection is performed once a month. Mice were anesthetized with tribromoethanol, scanned by small animal ultrasonic apparatus (Vevo 770 small animal ultrasonic detection system, Canada), with 30 MHz probe, M-mode echocardiography were analyzed: Body weight (BW), LVPW, d (the thickness of the left ventricular posterior wall at the end of the diastole), LVPW, s (the thickness of the left ventricular posterior wall at the end of the systole), LVAW, d (the thickness of the left ventricular anterior wall at the end of the diastole), LVAW, s (the thickness of the left ventricular anterior wall at the end of the systole), LV Mass (the weight of the left ventricular), Diameter, s (the inner diameter of the left ventricular at the end of the systole), Diameter, d (the inner diameter of the left ventricular at the end of the diastole), Volume, s (the volume of the left ventricular at the end of the systole), Volume, d (the volume of the left ventricular at the end of the diastole), SV (Stroke Volume), EF (Ejection Fraction), FS (Fractional Shortening) and CO (Cardiac Output).",
  "data": [
    {"smiles": "CC(C)=CCC[C@](C)(O[C@@H]1O[C@H](CO[C@@H]2O[C@H](CO)[C@@H](O)[C@H](O)[C@H]2O)[C@@H](O)[C@H](O)[C@H]1O)[C@H]1CC[C@]2(C)[C@@H]1[C@H](O)C[C@@H]1[C@@]3(C)CC[C@H](O[C@@H]4O[C@H](CO)[C@@H](O)[C@H](O)[C@H]4O[C@@H]4O[C@H](CO)[C@@H](O)[C@H](O)[C@H]4O)C(C)(C)[C@@H]3CC[C@]12C", "note": "[Rb1, ginsenoside Rb1]", "values": [
      {"measurement": "CO (Cardiac Output)", "setting": "0 month of administration", "result": "19.59 ± 2.99"},
      {"measurement": "Diameter; d (inner diameter of the left ventricular, end of diastole)", "setting": "0 month of administration", "result": "4.02 ± 0.32"},
      {"measurement": "Diameter; s (inner diameter of the left ventricular, end of systole)", "setting": "0 month of administration", "result": "2.84 ± 0.41"},
      {"measurement": "EF (Ejection Fraction)", "setting": "0 month of administration", "result": "57.05 ± 7.87"},
      {"measurement": "FS (Fractional Shortening)", "setting": "0 month of administration", "result": "29.77 ± 5.07"},
      {"measurement": "LV Mass (AW) (weight of the left ventricular)", "setting": "0 month of administration", "result": "92.06 ± 17.12"},
      {"measurement": "LVAW; d (left ventricular anterior wall thickness, end of diastole)", "setting": "0 month of administration", "result": "0.67 ± 0.06"},
      {"measurement": "LVAW; s (left ventricular anterior wall thickness, end of systole)", "setting": "0 month of administration", "result": "0.99 ± 0.12"},
      {"measurement": "LVPW; d (left ventricular posterior wall thickness, end of diastole)", "setting": "0 month of administration", "result": "0.67 ± 0.07"},
      {"measurement": "LVPW; s (left ventricular posterior wall thickness, end of systole)", "setting": "0 month of administration", "result": "0.85 ± 0.06"},
      {"measurement": "SV (Stroke Volume)", "setting": "0 month of administration", "result": "40.00 ± 4.42"},
      {"measurement": "Volume; d (volume of the left ventricular, end of diastole)", "setting": "0 month of administration", "result": "71.50 ± 13.77"},
      {"measurement": "Volume; s (volume of the left ventricular, end of systole)", "setting": "0 month of administration", "result": "31.51 ± 11.53"},
      {"measurement": "CO (Cardiac Output)", "setting": "1 month of administration", "result": "22.14 ± 2.64"},
      {"measurement": "Diameter; d (inner diameter of the left ventricular, end of diastole)", "setting": "1 month of administration", "result": "4.33 ± 0.38"},
      {"measurement": "Diameter; s (inner diameter of the left ventricular, end of systole)", "setting": "1 month of administration", "result": "3.01 ± 0.46"},
      {"measurement": "EF (Ejection Fraction)", "setting": "1 month of administration", "result": "58.32 ± 7.31"},
      {"measurement": "FS (Fractional Shortening)", "setting": "1 month of administration", "result": "30.78 ± 4.73"},
      {"measurement": "LV Mass (AW) (weight of the left ventricular)", "setting": "1 month of administration", "result": "120.38 ± 13.83"},
      {"measurement": "LVAW; d (left ventricular anterior wall thickness, end of diastole)", "setting": "1 month of administration", "result": "0.84 ± 0.12"},
      {"measurement": "LVAW; s (left ventricular anterior wall thickness, end of systole)", "setting": "1 month of administration", "result": "1.21 ± 0.13"},
      {"measurement": "LVPW; d (left ventricular posterior wall thickness, end of diastole)", "setting": "1 month of administration", "result": "0.67 ± 0.06"},
      {"measurement": "LVPW; s (left ventricular posterior wall thickness, end of systole)", "setting": "1 month of administration", "result": "0.95 ± 0.11"},
      {"measurement": "SV (Stroke Volume)", "setting": "1 month of administration", "result": "48.69 ± 5.08"},
      {"measurement": "Volume; d (volume of the left ventricular, end of diastole)", "setting": "1 month of administration", "result": "85.37 ± 17.55"},
      {"measurement": "Volume; s (volume of the left ventricular, end of systole)", "setting": "1 month of administration", "result": "36.68 ± 13.77"},
      {"measurement": "CO (Cardiac Output)", "setting": "2 month of administration", "result": "21.89 ± 1.78"},
      {"measurement": "Diameter; d (inner diameter of the left ventricular, end of diastole)", "setting": "2 month of administration", "result": "4.31 ± 0.27"},
      {"measurement": "Diameter; s (inner diameter of the left ventricular, end of systole)", "setting": "2 month of administration", "result": "3.15 ± 0.39"},
      {"measurement": "EF (Ejection Fraction)", "setting": "2 month of administration", "result": "52.93 ± 7.59"},
      {"measurement": "FS (Fractional Shortening)", "setting": "2 month of administration", "result": "27.23 ± 5.02"},
      {"measurement": "LV Mass (AW) (weight of the left ventricular)", "setting": "2 month of administration", "result": "111.52 ± 7.92"},
      {"measurement": "LVAW; d (left ventricular anterior wall thickness, end of diastole)", "setting": "2 month of administration", "result": "0.78 ± 0.05"},
      {"measurement": "LVAW; s (left ventricular anterior wall thickness, end of systole)", "setting": "2 month of administration", "result": "1.13 ± 0.14"},
      {"measurement": "LVPW; d (left ventricular posterior wall thickness, end of diastole)", "setting": "2 month of administration", "result": "0.69 ± 0.08"},
      {"measurement": "LVPW; s (left ventricular posterior wall thickness, end of systole)", "setting": "2 month of administration", "result": "0.88 ± 0.12"},
      {"measurement": "SV (Stroke Volume)", "setting": "2 month of administration", "result": "43.68 ± 2.20"},
      {"measurement": "Volume; d (volume of the left ventricular, end of diastole)", "setting": "2 month of administration", "result": "83.96 ± 12.12"},
      {"measurement": "Volume; s (volume of the left ventricular, end of systole)", "setting": "2 month of administration", "result": "40.29 ± 11.15"},
      {"measurement": "CO (Cardiac Output)", "setting": "3 month of administration", "result": "22.72 ± 3.18"},
      {"measurement": "Diameter; d (inner diameter of the left ventricular, end of diastole)", "setting": "3 month of administration", "result": "4.61 ± 0.35"},
      {"measurement": "Diameter; s (inner diameter of the left ventricular, end of systole)", "setting": "3 month of administration", "result": "3.47 ± 0.48"},
      {"measurement": "EF (Ejection Fraction)", "setting": "3 month of administration", "result": "48.85 ± 9.39"},
      {"measurement": "FS (Fractional Shortening)", "setting": "3 month of administration", "result": "24.88 ± 5.88"},
      {"measurement": "LV Mass (AW) (weight of the left ventricular)", "setting": "3 month of administration", "result": "124.88 ± 20.30"},
      {"measurement": "LVAW; d (left ventricular anterior wall thickness, end of diastole)", "setting": "3 month of administration", "result": "0.75 ± 0.08"},
      {"measurement": "LVAW; s (left ventricular anterior wall thickness, end of systole)", "setting": "3 month of administration", "result": "0.98 ± 0.09"},
      {"measurement": "LVPW; d (left ventricular posterior wall thickness, end of diastole)", "setting": "3 month of administration", "result": "0.71 ± 0.06"},
      {"measurement": "LVPW; s (left ventricular posterior wall thickness, end of systole)", "setting": "3 month of administration", "result": "0.88 ± 0.11"},
      {"measurement": "SV (Stroke Volume)", "setting": "3 month of administration", "result": "46.95 ± 6.12"},
      {"measurement": "Volume; d (volume of the left ventricular, end of diastole)", "setting": "3 month of administration", "result": "98.37 ± 16.57"},
      {"measurement": "Volume; s (volume of the left ventricular, end of systole)", "setting": "3 month of administration", "result": "51.42 ± 15.53"},
      {"measurement": "CO (Cardiac Output)", "setting": "4 month of administration", "result": "24.42 ± 1.52"},
      {"measurement": "Diameter; d (inner diameter of the left ventricular, end of diastole)", "setting": "4 month of administration", "result": "4.56 ± 0.26"},
      {"measurement": "Diameter; s (inner diameter of the left ventricular, end of systole)", "setting": "4 month of administration", "result": "3.38 ± 0.35"}
    ]}
  ]
}
